The record followed here is patent US9096598B2 (Merck Sharp & Dohme Corp., priority 2011, dated 2015).

Structures are written as SMILES. A value given as a limit tells only on which side of the number the result lay.

One assay concerns the target T1, JAK3 (Homo sapiens, UniProt P52333).
T1 construct: recombinant purified GST-tagged catalytic domain for each enzyme; purchased Invitrogen M4290
Nature of the assay: Jak Biochemical HTRF Assay (JAK3). The following applies: recombinant purified GST-tagged catalytic domain, [ATP] 2.9 μM, values given as range classes. In outline: (§1)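 GST-tagged recombinant catalytic domain and biotinylated peptide substrate were preincubated with compound for 30 min at room temperature in kinase buffer with 2 mM DTT and 0.05% BSA. ATP then started a 120 min reaction. Phosphopeptide was detected by HTRF (Eu-pY20/streptavidin-Dylight 650, 665/615 nm ratio), and IC50 came from a 4-parameter fit of percent inhibition.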
On the technique in general: TR-FRET usually uses a lanthanide donor and a delayed reading to cut background.

The target in a further assay is T2, JAK2 (Homo sapiens, UniProt O60674).
T2 construct: recombinant purified GST-tagged catalytic domain for each enzyme; purchased Invitrogen M4290
T2 sequence (O60674 849-1124 limits assumed): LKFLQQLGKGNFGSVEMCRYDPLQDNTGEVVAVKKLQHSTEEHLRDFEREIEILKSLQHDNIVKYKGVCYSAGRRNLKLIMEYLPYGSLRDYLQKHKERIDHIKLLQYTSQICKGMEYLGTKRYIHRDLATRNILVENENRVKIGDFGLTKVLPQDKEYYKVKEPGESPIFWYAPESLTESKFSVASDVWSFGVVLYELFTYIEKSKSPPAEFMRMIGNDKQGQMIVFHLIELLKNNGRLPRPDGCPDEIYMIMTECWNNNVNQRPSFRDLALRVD
Description: Jak Biochemical HTRF Assay (JAK2). The note with it: recombinant purified GST-tagged catalytic domain, [ATP] 8.5 μM, values given as range classes. In outline: as §1

T1 sequence (P52333 822-1111 limits assumed): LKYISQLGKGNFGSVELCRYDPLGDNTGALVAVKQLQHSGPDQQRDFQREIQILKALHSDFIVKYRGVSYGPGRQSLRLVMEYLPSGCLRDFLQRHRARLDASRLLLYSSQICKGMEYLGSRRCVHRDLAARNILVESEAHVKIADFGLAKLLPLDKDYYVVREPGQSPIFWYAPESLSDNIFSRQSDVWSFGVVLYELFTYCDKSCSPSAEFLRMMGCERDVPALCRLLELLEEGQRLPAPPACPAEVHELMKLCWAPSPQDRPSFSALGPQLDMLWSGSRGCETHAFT

By IC50 is commonly meant the point on the concentration scale where inhibition reaches its midpoint. Consider `COCCOc1cnc2[nH]cc(-c3cncc(NC(C(=O)NCC(F)(F)F)C(C)C)c3)c2c1` (centres unmarked) [Example 2-2], for which the IC50 was not above 10 nM on JAK3 and 10 to 500 nM at JAK2.
Consider `CC(C)Oc1cnc2[nH]cc(-c3cncc(N[C@@H](C(=O)NCC(F)(F)F)C(C)C)c3)c2c1` [Example 2-3, N~2~-{5-[5-(1-methylethoxy)-1H-pyrrolo[2,3-b]pyridin-3-yl]pyridin-3-yl}-N-(2,2,2-trifluoroethyl)-D-valinamide], for which the IC50 at JAK3 was not above 10 nM; on JAK2, 10 to 500 nM.
Consider `CC(C)[C@H](Nc1cncc(-c2c[nH]c3ncc(OCc4ccccc4)cc23)c1)C(=O)NCC(F)(F)F` [Example 2-4, N~2~-{5-[5-(benzyloxy)-1H-pyrrolo[2,3-b]pyridin-3-yl]pyridin-3-yl}-N-(2,2,2-trifluoroethyl)valinamide], for which the figures for the IC50 on JAK3 and at JAK2 were not above 10 nM and 10 to 500 nM, respectively.
Take `CC(C)[C@H](Nc1cncc(-c2c[nH]c3ncc(OC4CCCC4)cc23)c1)C(=O)NCC(F)(F)F` [Example 2-5, N~2~-{5-[5-(cyclopentyloxy)-1H-pyrrolo[2,3-b]pyridin-3-yl]pyridin-3-yl}-N-(2,2,2-trifluoroethyl)valinamide]: the IC50 on JAK3 is not above 10 nM; at JAK2, 10 to 500 nM.
`CC(C)[C@H](Nc1cncc(-c2c[nH]c3ncc(OCC4CC4)cc23)c1)C(=O)NCC(F)(F)F` [Example 2-6, N~2~-{5-[5-(cyclopropylmethoxy)-1H-pyrrolo[2,3-b]pyridin-3-yl]pyridin-3-yl}-N-(2,2,2-trifluoroethyl)valinamide]: the values for the IC50 at JAK3 and on JAK2 were not above 10 nM and 10 to 500 nM, respectively.
Taken in the same sequence, the figures for `CC(C)[C@H](Nc1cncc(-c2c[nH]c3ncc(OCCc4ccccc4)cc23)c1)C(=O)NCC(F)(F)F` [Example 2-7, N~2~-{5-[5-(2-phenylethoxy)-1H-pyrrolo[2,3-b]pyridin-3-yl]pyridin-3-yl}-N-(2,2,2-trifluoroethyl)valinamide] were not above 10 nM and 10 to 500 nM.
Consider `CC(C)[C@H](Nc1cncc(-c2c[nH]c3ncc(OC4Cc5ccccc5C4)cc23)c1)C(=O)NCC(F)(F)F` [Example 2-8, N~2~-{5-[5-(2,3-dihydro-1H-inden-2-yloxy)-1H-pyrrolo[2,3-b]pyridin-3-yl]pyridin-3-yl}-N-(2,2,2-trifluoroethyl)valinamide], for which the IC50 at JAK3 was not above 10 nM; on JAK2, 10 to 500 nM.
Regarding `CC(C)[C@H](Nc1cncc(-c2c[nH]c3ncc(OC4CCOCC4)cc23)c1)C(=O)NCC(F)(F)F` [Example 2-9, N~2~-{5-[5-(tetrahydro-2H-pyran-4-yloxy)-1H-pyrrolo[2,3-b]pyridin-3-yl]pyridin-3-yl}-N-(2,2,2-trifluoroethyl)valinamide], the IC50 at JAK3 was not above 10 nM; at JAK2 it was 10 to 500 nM.
Turning to `CC(C)[C@H](Nc1cncc(-c2c[nH]c3ncc(OCCN4CCCC4=O)cc23)c1)C(=O)NCC(F)(F)F` [Example 2-10, N~2~-(5-{5-[2-(2-oxopyrrolidin-1-yl)ethoxy]-1H-pyrrolo[2,3-b]pyridin-3-yl}pyridin-3-yl)-N-(2,2,2-trifluoroethyl)valinamide], the figures for the IC50 at JAK3 and on JAK2 were not above 10 nM and 10 to 500 nM, respectively.
In the same order, the values of `CC(C)[C@H](Nc1cncc(-c2c[nH]c3ncc(OCc4cccnc4)cc23)c1)C(=O)NCC(F)(F)F` [Example 2-11, N~2~-{5-[5-(pyridin-3-ylmethoxy)-1H-pyrrolo[2,3-b]pyridin-3-yl]pyridin-3-yl}-N-(2,2,2-trifluoroethyl)valinamide] are not above 10 nM and 10 to 500 nM.
`CC(C)[C@H](Nc1cncc(-c2c[nH]c3ncc(OCCc4ccccn4)cc23)c1)C(=O)NCC(F)(F)F` [Example 2-12, N~2~-{5-[5-(2-pyridin-2-ylethoxy)-1H-pyrrolo[2,3-b]pyridin-3-yl]pyridin-3-yl}-N-(2,2,2-trifluoroethyl)valinamide]: the IC50 at JAK3 is not above 10 nM; at JAK2 it was 10 to 500 nM.
`CC(C)[C@H](Nc1cncc(-c2c[nH]c3ncc(OCCN(C)C)cc23)c1)C(=O)NCC(F)(F)F` [Example 2-13, N~2~-(5-{5-[2-(dimethylamino)ethoxy]-1H-pyrrolo[2,3-b]pyridin-3-yl}pyridin-3-yl)-N-(2,2,2-trifluoroethyl)valinamide]: the IC50 was 10 to 500 nM at JAK3 and more than 500 nM at JAK2.
Turning to `CC(C)[C@H](Nc1cncc(-c2c[nH]c3ncc(OCCCN(C)C)cc23)c1)C(=O)NCC(F)(F)F` [Example 2-14, N~2~-(5-{5-[3-(dimethylamino)propoxy]-1H-pyrrolo[2,3-b]pyridin-3-yl}pyridin-3-yl)-N-(2,2,2-trifluoroethyl)valinamide], the IC50 was not above 10 nM at JAK3 and 10 to 500 nM on JAK2.
As to `CC(C)[C@H](Nc1cncc(-c2c[nH]c3ncc(OCCN4CCOCC4)cc23)c1)C(=O)NCC(F)(F)F` [Example 2-15, N~2~-{5-[5-(2-morpholin-4-ylethoxy)-1H-pyrrolo[2,3-b]pyridin-3-yl]pyridin-3-yl}-N-(2,2,2-trifluoroethyl)valinamide], the IC50 on JAK3 was not above 10 nM; at JAK2 it was 10 to 500 nM.
Taken in the same sequence, the figures for `CC(C)C(Nc1cncc(-c2c[nH]c3ncc(OC4CCN(C)CC4)cc23)c1)C(=O)NCC(F)(F)F` (centres unmarked) [Example 2-16, N~2~-(5-{5-[(1-methylpiperidin-4-yl)oxy]-1H-pyrrolo[2,3-b]pridin-3-yl}pyridin-3-yl)-N-(2,2,2-trifluoroethyl)valinamide] were not above 10 nM and 10 to 500 nM.
Take `CC(C)[C@H](Nc1cncc(-c2c[nH]c3ncc(OCCN4CCN(C)CC4)cc23)c1)C(=O)NCC(F)(F)F` [Example 2-17, N~2~-(5-{5-[2-(4-methylpiperazin-1-yl)ethoxy]-1H-pyrrolo[2,3-b]pyridin-3-yl}pyridin-3-yl)-N-(2,2,2-trifluoroethyl)valinamide]: the IC50 at JAK3 is not above 10 nM; on JAK2, 10 to 500 nM.
In the case of `CC(C)C(Nc1cncc(-c2c[nH]c3ncc(OCC4CCN(C)CC4)cc23)c1)C(=O)NCC(F)(F)F` (centres unmarked) [Example 2-18, N~2~-(5-{5-[(1-methylpiperidin-4-yl)methoxy]-1H-pyrrolo[2,3-b]ppidin-3-yl}pyridin-3-yl)-N-(2,2,2-trifluoroethyl)valinamide], the IC50 is not above 10 nM on JAK3 and 10 to 500 nM on JAK2.
Consider `CC(C)[C@@H](Nc1cncc(-c2c[nH]c3ncc(C(=O)N(C)C)cc23)c1)C(=O)NCC(F)(F)F` [Example 3-1, (R)—N,N-dimethyl-3-(5-(3-methyl-1-oxo-1-(2,2,2-trifluoroethylamino)butan-2-ylamino)pyridin-3-yl)-1H-pyrrolo[2,3-b]pyridine-5-carboxamide], for which the IC50 at JAK3 is 10 to 500 nM; on JAK2, more than 500 nM.
Taken in the same sequence, the figures for `CC(C)NC(=O)c1cnc2[nH]cc(-c3cncc(N[C@@H](C(=O)NCC(F)(F)F)C(C)C)c3)c2c1` [Example 3-2, N-(1-methylethyl)-3-[5-({(1R)-2-methyl-1-[(2,2,2-trifluoroethyl)carbamoyl]propyl}amino)pyridin-3-yl]-1H-pyrrolo[2,3-b]pyridine-5-carboxamide] were not above 10 nM and not above 10 nM.
Take `COCC(C)NC(=O)c1cnc2[nH]cc(-c3cncc(N[C@@H](C(=O)NCC(F)(F)F)C(C)C)c3)c2c1` (stereo partly drawn) [Example 3-3, N-(2-methoxy-1-methylethyl)-3-[5-({(1R)-2-methyl-1-[(2,2,2-trifluoroethyl)carbamoyl]propyl}amino)pyridin-3-yl]-1H-pyrrolo[2,3-b]pyridine-5-carboxamide]: the IC50 at JAK3 is not above 10 nM; on JAK2, 10 to 500 nM.
Consider `CC(CO)NC(=O)c1cnc2[nH]cc(-c3cncc(N[C@@H](C(=O)NCC(F)(F)F)C(C)C)c3)c2c1` (stereo partly drawn) [Example 3-4, N-(2-hydroxy-1-methylethyl)-3-[5-({(1R)-2-methyl-1-[(2,2,2-trifluoroethyl)carbamoyl]propyl}amino)pyridin-3-yl]-1H-pyrrolo[2,3-b]pyridine-5-carboxamide], for which the IC50 on JAK3 and at JAK2 was not above 10 nM throughout.
Take `CC(C)[C@@H](Nc1cncc(-c2c[nH]c3ncc(C(=O)NC4CCOCC4)cc23)c1)C(=O)NCC(F)(F)F` [Example 3-5, 3-[5-({(1R)-2-methyl-1-[(2,2,2-trifluoroethyl)carbamoyl]propyl}amino)pyridin-3-yl]-N-(tetrahydro-2H-pyran-4-yl)-1H-pyrrolo[2,3-b]pyridine-5-carboxamide]: the IC50 on JAK3 and on JAK2 was not above 10 nM throughout.
Consider `CC(C)[C@@H](Nc1cncc(-c2c[nH]c3ncc(C(=O)N4CCC4)cc23)c1)C(=O)NCC(F)(F)F` [Example 3-6, N~2~-{5-[5-(azetidin-1-ylcarbonyl)-1H-pyrrolo[2,3-b]pyridin-3-yl]pyridin-3-yl}-N-(2,2,2-trifluoroethyl)-D-valinamide], for which the IC50 was not above 10 nM on JAK3 and 10 to 500 nM on JAK2.
`CC(C)CNC(=O)c1cnc2[nH]cc(-c3cncc(N[C@@H](C(=O)NCC(F)(F)F)C(C)C)c3)c2c1` [Example 3-7, N-(2-methylpropyl)-3-[5-({(1R)-2-methyl-1-[(2,2,2-trifluoroethyl)carbamoyl]propyl}amino)pyridin-3-yl]-1H-pyrrolo[2,3-b]pyridine-5-carboxamide]: the IC50 at JAK3 was not above 10 nM; at JAK2, 10 to 500 nM.
In the same order, the values of `CNC(=O)c1cnc2[nH]cc(-c3cncc(N[C@@H](C(=O)NCC(F)(F)F)C(C)C)c3)c2c1` [Example 3-8, N-methyl-3-[5-({(1R)-2-methyl-1-[(2,2,2-trifluoroethyl)carbamoyl]propyl}amino)pyridin-3-yl]-1H-pyrrolo[2,3-b]pyridine-5-carboxamide] are not above 10 nM and 10 to 500 nM.
